Test results published in patent publication US20080076824A1, “Compounds That Inhibit Replication Of Human Immunodeficiency Virus” (priority 2004, published 2008).
“And” between values parts separate entries of the source, which are not always exact repeats. Equal entries are not always repeated. “Also recorded” adds a separate entry of the source. Structures can show the parent of a compound that is named as a salt. Where two headings read alike, the source gives them in different places. Residues, ends and D or L forms follow the SMILES beside them.

Columns and labels:
HIV-2 (ROD) = assay: microbe, parasite or virus in culture; format: cell-based
How it was run: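 CEM, C8166 or MT-4 cells (4 to 5×10^5 cells/ml) infected with HIV-2 ROD at ~100 CCID50/ml, then incubated with 5-fold compound dilutions at 37 °C for 4–5 days. Giant cell formation scored microscopically in CEM and C8166 cultures; MT-4 viability counted by trypan blue exclusion.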

HIV-1 (IIIB) = assay: microbe, parasite or virus in culture
Description: (§1) MT-4, C8166 or CEM cells (4 to 5×10^5 cells per ml) were suspended in fresh culture medium (RPMI-1640 medium supplemented with 10% fetal bovine serum (FBS) (BioWittaker Europe, Verviers, Belgium), 2 mM L-glutamine and […] NaHCO3). Subsequently, the cells were infected with HIV-1 (IIIB) or HIV-2(ROD) at ˜100 CCID50 (1 CCID50 being the dose infective for 50% of the cell cultures) per ml of cell suspension. Then, 100 μl of the infected cell suspension were transferred to 96-well microplate wells, mixed with 100 μl of the appropriate (5-fold) dilutions of the test compounds and further incubated at 37° C. After 4 to 5 days, giant cell formation was recorded microscopically in the CEM and C8166 cell cultures. The MT-4 cell cultures were treated with trypan blue and the number of viable cells was determined.

HIV-2(ROD) = assay: microbe, parasite or virus in culture
Description: as §1

HIV (SF2 virus) [1] = assay: HIV infectivity assay, SF2-infected H9 cells, reverse transcriptase (RT) quantification in supernatant; format: cell-based; conditions: for RT mean: mean of replicates; for RT: single replicate; for RT / OD405-620 / OD405-620 - Blank: listed as αHGA, hydrochloride
HIV (SF2 virus) [2] = assay: HIV infectivity assay, SF2-infected H9 cells, p24 quantification; format: cell-based
Description: The remaining wells were filled with sterile distilled water. The cell culture plates were incubated at 37° C. and 5% CO2. After four days the medium was changed, after eight days the medium was changed and the cells were collected. After 11 days, the infection was stopped, the cells were viewed in a 10× magnification microscope and 650 μl of each cell supernatant was collected and frozen at −80° C. for further analysis. After five more days, the supernatants were thawed and used in a conventional reverse transcriptase (RT) activity assay (e.g., Roche AMPLICOR MONITOR™) or a p24 quantification assay (e.g., Abbott Laboratories, Chicago). (See U.S. Pat. No. 6,258,932 and U.S. patent application Ser. No. 10/235,158, both of which are hereby expressly incorporated by reference in its entireties).
[…] The cells in the samples were counted and then centrifuged. The cells were then resuspended in 10 ml of RPMI 1640 (containing fetal calf serum) and either […] Metabolite X or 100 μM GPG-NH2. Uninfected control and untreated control samples were also included in the experiment. The samples were then incubated overnight at 37° C. at 5% CO2.
Then, the amount of p24 in the samples was analysed using a conventional p24 detection assay (see U.S. Pat. No. 6,258,932).
Three replicate samples (“replicates”) of uninfected samples and untreated samples were also included in the experiment as controls. The inhibition of HIV replication was monitored by quantifying the levels of p24 using a conventional detection kit.
Three replicates of unninfected samples and untreated samples were also included in the experiment as controls.

HIV-1 (NL4.3) = conditions: read-out: EC50 HIV-1 NL3.4; CEM cell cultures, syncytia formation
Description: (§2) Human T-lymphocytic CEM cells (4.5×10^5 cells per ml) were suspended in fresh cell culture medium and infected with HIV-1 (IIIB and NL4.3) or HIV-2 (ROD or EHO) at 100 CCID50 (1 CCID50 being the virus dose infective for 50% of the cell cultures) per ml of cell suspension. Then, 100 μl of the infected cell suspension were transferred to microplate wells, mixed with 100 μl of appropriate (freshly prepared) dilutions of the test compounds (i.e., at final concentrations of […]), and were further incubated at 37° C. After 4 to 5 days, giant cell formation was recorded microscopically in the CEM cell cultures.

HIV-2 (EHO) = conditions: read-out: EC50 HIV-2 EHO; CEM cell cultures, syncytia formation
Description: as §2

Coxsackie virus B4 = assay: Antiviral activity in HeLa cell cultures, Coxsackie virus B4; format: cell-based; conditions: reduces virus-induced cytopathogenicity by 50%, read-out: Minimum inhibitory concentration Coxsackie virus B4
Description: The cytotoxicity and antiviral activity of various concentrations of G-NH2 and GPG-NH2 were evaluated in cell cultures that were infected with various types of viruses. Conventional host cell culture, viral infection, and infectivity analysis for each different type of cell and virus were followed. Compounds that were known to inhibit replication of the particular types of viruses analyzed were used as controls.

Parainfluenza-3 virus = conditions: read-out: Minimum inhibitory concentration Parainfluenza-3 virus; Vero; reduces virus-induced cytopathogenicity by 50%
Sindbis virus = conditions: read-out: Minimum inhibitory concentration Sindbis virus; Vero; reduces virus-induced cytopathogenicity by 50%
[3] = 50 μM, fetal calf serum, hydrochloride

NC(=O)C(N)O (stereo not drawn) [AlphaHGA, α-Hydroxy-glycinamide hydrochloride]
EC50 (HIV-2 (ROD); Human immunodeficiency virus 2, CCRF-CEM, read-out: EC50 (CEM) HIV-2 (ROD)): 52 ± 23 µM
EC50 (HIV-1 (IIIB); Human immunodeficiency virus 1, IIIB, C8166, read-out: EC50 (C8166) HIV-1 (IIIB)): 200 µM
EC50 (HIV-1 (IIIB); Human immunodeficiency virus 1, IIIB, MT4, read-out: EC50 (MT-4) HIV-1 (IIIB)): ≥ 500 µM
EC50 (HIV-1 (IIIB); Human immunodeficiency virus 1, IIIB, MT4, read-out: EC50 (MT-4) HIV-1(IIIB)): ≥ 500 µM
EC50 (HIV-2(ROD); Human immunodeficiency virus 2, C8166, read-out: EC50 (C8166) HIV-2 (ROD)): 125 µM
EC50 (HIV-2(ROD); Human immunodeficiency virus 2, MT4, read-out: EC50 (MT-4) HIV-2 (ROD)): ≥ 500 µM
EC50 (HIV-2(ROD); read-out: EC50 (MT-4) HIV-2 (ROD), Table 20): ≥ 500 µM
RT mean (HIV (SF2 virus) [1]; 0.5 μM, fetal calf serum): 7539 pg/mL
RT (HIV (SF2 virus) [1]; 0.5 μM, fetal calf serum): 6982 pg/mL and 9916 pg/mL and 5721 pg/mL
OD405-620 (HIV (SF2 virus) [1]; 0.5 μM, fetal calf serum): 0.692 and 0.962 and 0.576
OD405-620 - Blank (HIV (SF2 virus) [1]; 0.5 μM, fetal calf serum): 0.666 and 0.936 and 0.55
RT mean (HIV (SF2 virus) [1]; 1 μM, fetal calf serum): 4594 pg/mL
RT (HIV (SF2 virus) [1]; 1 μM, fetal calf serum): 5590 pg/mL and 4482 pg/mL and 3710 pg/mL
OD405-620 (HIV (SF2 virus) [1]; 1 μM, fetal calf serum): 0.564 and 0.462 and 0.391
OD405-620 - Blank (HIV (SF2 virus) [1]; 1 μM, fetal calf serum): 0.538 and 0.436 and 0.365
RT mean (HIV (SF2 virus) [1]; 2 μM, fetal calf serum): 5934 pg/mL
RT (HIV (SF2 virus) [1]; 2 μM, fetal calf serum): 8003 pg/mL and 6492 pg/mL and 3308 pg/mL
RT mean (HIV (SF2 virus) [1]; 4 μM, fetal calf serum): 5315 pg/mL
RT (HIV (SF2 virus) [1]; 4 μM, fetal calf serum): 5340 pg/mL and 4688 pg/mL and 5916 pg/mL
OD405-620 (HIV (SF2 virus) [1]; 4 μM, fetal calf serum): 0.541 and 0.481 and 0.594
OD405-620 - Blank (HIV (SF2 virus) [1]; 4 μM, fetal calf serum): 0.515 and 0.455 and 0.568
RT mean (HIV (SF2 virus) [1]; 8 μM, fetal calf serum): 5300 pg/mL
RT (HIV (SF2 virus) [1]; 8 μM, fetal calf serum): 6688 pg/mL and 4971 pg/mL and 4242 pg/mL
OD405-620 (HIV (SF2 virus) [1]; 8 μM, fetal calf serum): 0.665 and 0.507 and 0.44
OD405-620 - Blank (HIV (SF2 virus) [1]; 8 μM, fetal calf serum): 0.639 and 0.481 and 0.414
RT mean (HIV (SF2 virus) [1]; 16 μM, fetal calf serum): 1134 pg/mL
RT (HIV (SF2 virus) [1]; 16 μM, fetal calf serum): 1514 pg/mL and 666 pg/mL and 1221 pg/mL
OD405-620 (HIV (SF2 virus) [1]; 16 μM, fetal calf serum): 0.189 and 0.111 and 0.162
OD405-620 - Blank (HIV (SF2 virus) [1]; 16 μM, fetal calf serum): 0.163 and 0.085 and 0.136
HIV replication at 25 μM (HIV (SF2 virus) [1]; 25 μM): neglible levels
RT mean (HIV (SF2 virus) [1]; 32 μM, fetal calf serum): 72 pg/mL
RT (HIV (SF2 virus) [1]; 32 μM, fetal calf serum): 48 pg/mL and 70 pg/mL and 97 pg/mL
OD405-620 (HIV (SF2 virus) [1]; 32 μM, fetal calf serum): 0.269 and 0.373 and 0.497
OD405-620 - Blank (HIV (SF2 virus) [1]; 32 μM, fetal calf serum): 0.243 and 0.347 and 0.471
IC50 (HIV (SF2 virus) [1]; Human immunodeficiency virus 1, H9, 264 h): 6 to 9 µM
stability to incubation at 37° C. (HIV (SF2 virus) [1]; diluted sample, antiretroviral activity compared with freshly diluted compound): stable to incubation at 37 °C for at least three days
concentration for appreciable inhibition of HIV replication (HIV (SF2 virus) [1]; whether heat-treated or not): above 8 μM
concentration for better antiretroviral activity (HIV (SF2 virus) [1]; whether heat-treated or not): above 16 μM
concentration for very efficient inhibition of HIV replication (HIV (SF2 virus) [1]; whether heat-treated or not): above 30 μM
OD1 (HIV (SF2 virus) [2]; 50 μM, fetal calf serum, replicates (1)-(3), hydrochloride): 0.183 and 0.232 and 0.147
OD2 (HIV (SF2 virus) [2]; [3]): 0.185 and 0.216 and 0.139
conc p24 (HIV (SF2 virus) [2]; [3]): 0.26 ng/mL and 0.33 ng/mL and 0.20 ng/mL
mean OD (HIV (SF2 virus) [2]; [3]): 0.184 and 0.224 and 0.143
mean OD - blank (HIV (SF2 virus) [2]; [3]): 0.142 and 0.182 and 0.101
inhibition of HIV, accumulation of p24, compared with reference (HIV (SF2 virus) [2]; fetal calf serum, hydrochloride): as effectively as GPG-NH2; also recorded: as effectively as G-NH2
inhibition of HIV replication, accumulation of p24 (HIV (SF2 virus) [2]; human serum, hydrochloride): effective inhibitors of HIV replication in human serum; also recorded: inhibited HIV replication in human serum

NCC(=O)N1CCC[C@H]1C(=O)NCC(N)=O [GPG-NH2, glycylprolylglycinamide] (H-Gly-Pro-Gly-NH2)
EC50 (HIV-2 (ROD); CEM cell cultures, syncytia formation, Table 1, read-out: EC50 HIV-2 ROD): 30 ± 10 µM
EC50 (HIV-1 (NL4.3)): 50 µM
EC50 (HIV-2 (EHO)): 42 ± 14 µM
EC50 (HIV-1 (IIIB); read-out: EC50 (C8166) HIV-1 (IIIB), Table 19): 150 µM
EC50 (HIV-1 (IIIB); read-out: EC50 (MT-4) HIV-1 (IIIB), Table 19): > 500 µM
EC50 (HIV-2(ROD); read-out: EC50 (C8166) HIV-2 (ROD), Table 19): 150 µM
EC50 (HIV-2(ROD); read-out: EC50 (MT-4) HIV-2 (ROD), Table 19): > 500 µM
EC50 (Coxsackie virus B4): > 400 µM
reverse transcriptase activity in treated samples (HIV (SF2 virus) [1]; 100 μM, fetal calf serum): no reverse transcriptase activity
inhibition of HIV replication, p24 (HIV (SF2 virus) [2]; 100 μM, presence of fetal calf serum): effectively inhibited HIV replication
EC50 (Parainfluenza-3 virus): > 400 µM
EC50 (Sindbis virus): > 400 µM
